Test results reported in ChEMBL document CHEMBL5154770, “Discovery of novel ataxia telangiectasia mutated (ATM) kinase modulators: Computational simulation, biological evaluation and cancer combinational chemotherapy study” (Eur J Med Chem, 2022).
Activity calls are given as the source filed them. The rule behind the calls is not given here.

Assays:
SW480 [1] = experiment: Antiproliferative activity against human SW480 cells measured after 3 days by SRB assay; type: functional, cell-based; conditions: SW480, 72 h
[2] = target: T1, Serine-protein kinase ATM (Homo sapiens, UniProt Q13315); experiment: Inhibition of ATM in human MCF7 cells assessed as decrease in pKAP-1 level measured by In-cell western assay; type: cell-based
SW480 [3] = experiment: Antiproliferative activity against human SW480 cells measured after 9 days by SRB assay; type: functional, cell-based; conditions: SW480, 216 h
MCF7 [4] = experiment: Antiproliferative activity against human MCF7 cells measured after 6 days by SRB assay; type: functional, cell-based; conditions: MCF7, 144 h
[5] = target: T1, Serine-protein kinase ATM; experiment: Binding affinity towards ATM (unknown origin) assessed as increase in thermal stability of ATM at 30 uM measured by thermal shift assay
HEK293 = experiment: Cytotoxicity against human HEK293 cells at 100 uM; type: toxicity, cell-based; conditions: hek293, 100 µM
MCF7 [6] = experiment: Antiproliferative activity against human MCF7 cells measured after 2 days by SRB assay; type: functional, cell-based; conditions: MCF7, 48 h
[7] = target: T1, Serine-protein kinase ATM; experiment: Inhibition of ATM in human MCF7 cells assessed as increase in pATM level at 12.5 to 18 uM measured by western blot analysis; type: cell-based; conditions: dose 12.5-18 µM
MDCK = experiment: Cytotoxicity against dog MDCK cells at 100 uM; type: toxicity, cell-based, Canis lupus familiaris
[8] = Toxicity in BALB/c nude mouse xenografted with human SW480 cells assessed as effect on body weight at 30 mg/kg, iv; type: organism-based; conditions: in vivo
[9] = target: T1, Serine-protein kinase ATM; experiment: Inhibition of ATM in human MCF7 cells assessed as increase in pKAP1 level at 12.5 to 18 uM measured by western blot analysis; type: cell-based; conditions: dose 12.5-18 µM
[10] = target: T1, Serine-protein kinase ATM; experiment: Competitive inhibition of ATM (unknown origin) measured by ATP-competitive binding assay
MCF7 [11] = experiment: Antiproliferative activity against human MCF7 cells assessed as growth inhibition at 100 uM measured after 2 days by SRB assay; type: functional; conditions: MCF7, 48 h, time 2 day, read-out: GI
[12] = target: T1, Serine-protein kinase ATM; experiment: Activation of ATM in human MCF7 cells assessed as increase in pATM level at 30 uM in presence of 25 uM etoposide measured by western blot analysis; type: cell-based; conditions: filed as activator
[13] = target: T1, Serine-protein kinase ATM; experiment: Activation of ATM in human MCF7 cells assessed as increase in pKAP-1 level at 0.001 to 100 uM measured by In-cell western assay; type: cell-based; conditions: filed as activator, dose 0.001-100 µM
SW480 [14] = experiment: Antiproliferative activity against human SW480 cells assessed as growth inhibition at 100 uM measured after 3 days by SRB assay; type: functional; conditions: SW480, 72 h, time 3 day, read-out: GI
[15] = target: T1, Serine-protein kinase ATM; experiment: Activation of ATM in human MCF7 cells assessed as increase in pKAP1 level at 30 uM in presence of 25 uM etoposide measured by western blot analysis; type: cell-based; conditions: filed as activator

T1 sequence (Q13315 whole entry): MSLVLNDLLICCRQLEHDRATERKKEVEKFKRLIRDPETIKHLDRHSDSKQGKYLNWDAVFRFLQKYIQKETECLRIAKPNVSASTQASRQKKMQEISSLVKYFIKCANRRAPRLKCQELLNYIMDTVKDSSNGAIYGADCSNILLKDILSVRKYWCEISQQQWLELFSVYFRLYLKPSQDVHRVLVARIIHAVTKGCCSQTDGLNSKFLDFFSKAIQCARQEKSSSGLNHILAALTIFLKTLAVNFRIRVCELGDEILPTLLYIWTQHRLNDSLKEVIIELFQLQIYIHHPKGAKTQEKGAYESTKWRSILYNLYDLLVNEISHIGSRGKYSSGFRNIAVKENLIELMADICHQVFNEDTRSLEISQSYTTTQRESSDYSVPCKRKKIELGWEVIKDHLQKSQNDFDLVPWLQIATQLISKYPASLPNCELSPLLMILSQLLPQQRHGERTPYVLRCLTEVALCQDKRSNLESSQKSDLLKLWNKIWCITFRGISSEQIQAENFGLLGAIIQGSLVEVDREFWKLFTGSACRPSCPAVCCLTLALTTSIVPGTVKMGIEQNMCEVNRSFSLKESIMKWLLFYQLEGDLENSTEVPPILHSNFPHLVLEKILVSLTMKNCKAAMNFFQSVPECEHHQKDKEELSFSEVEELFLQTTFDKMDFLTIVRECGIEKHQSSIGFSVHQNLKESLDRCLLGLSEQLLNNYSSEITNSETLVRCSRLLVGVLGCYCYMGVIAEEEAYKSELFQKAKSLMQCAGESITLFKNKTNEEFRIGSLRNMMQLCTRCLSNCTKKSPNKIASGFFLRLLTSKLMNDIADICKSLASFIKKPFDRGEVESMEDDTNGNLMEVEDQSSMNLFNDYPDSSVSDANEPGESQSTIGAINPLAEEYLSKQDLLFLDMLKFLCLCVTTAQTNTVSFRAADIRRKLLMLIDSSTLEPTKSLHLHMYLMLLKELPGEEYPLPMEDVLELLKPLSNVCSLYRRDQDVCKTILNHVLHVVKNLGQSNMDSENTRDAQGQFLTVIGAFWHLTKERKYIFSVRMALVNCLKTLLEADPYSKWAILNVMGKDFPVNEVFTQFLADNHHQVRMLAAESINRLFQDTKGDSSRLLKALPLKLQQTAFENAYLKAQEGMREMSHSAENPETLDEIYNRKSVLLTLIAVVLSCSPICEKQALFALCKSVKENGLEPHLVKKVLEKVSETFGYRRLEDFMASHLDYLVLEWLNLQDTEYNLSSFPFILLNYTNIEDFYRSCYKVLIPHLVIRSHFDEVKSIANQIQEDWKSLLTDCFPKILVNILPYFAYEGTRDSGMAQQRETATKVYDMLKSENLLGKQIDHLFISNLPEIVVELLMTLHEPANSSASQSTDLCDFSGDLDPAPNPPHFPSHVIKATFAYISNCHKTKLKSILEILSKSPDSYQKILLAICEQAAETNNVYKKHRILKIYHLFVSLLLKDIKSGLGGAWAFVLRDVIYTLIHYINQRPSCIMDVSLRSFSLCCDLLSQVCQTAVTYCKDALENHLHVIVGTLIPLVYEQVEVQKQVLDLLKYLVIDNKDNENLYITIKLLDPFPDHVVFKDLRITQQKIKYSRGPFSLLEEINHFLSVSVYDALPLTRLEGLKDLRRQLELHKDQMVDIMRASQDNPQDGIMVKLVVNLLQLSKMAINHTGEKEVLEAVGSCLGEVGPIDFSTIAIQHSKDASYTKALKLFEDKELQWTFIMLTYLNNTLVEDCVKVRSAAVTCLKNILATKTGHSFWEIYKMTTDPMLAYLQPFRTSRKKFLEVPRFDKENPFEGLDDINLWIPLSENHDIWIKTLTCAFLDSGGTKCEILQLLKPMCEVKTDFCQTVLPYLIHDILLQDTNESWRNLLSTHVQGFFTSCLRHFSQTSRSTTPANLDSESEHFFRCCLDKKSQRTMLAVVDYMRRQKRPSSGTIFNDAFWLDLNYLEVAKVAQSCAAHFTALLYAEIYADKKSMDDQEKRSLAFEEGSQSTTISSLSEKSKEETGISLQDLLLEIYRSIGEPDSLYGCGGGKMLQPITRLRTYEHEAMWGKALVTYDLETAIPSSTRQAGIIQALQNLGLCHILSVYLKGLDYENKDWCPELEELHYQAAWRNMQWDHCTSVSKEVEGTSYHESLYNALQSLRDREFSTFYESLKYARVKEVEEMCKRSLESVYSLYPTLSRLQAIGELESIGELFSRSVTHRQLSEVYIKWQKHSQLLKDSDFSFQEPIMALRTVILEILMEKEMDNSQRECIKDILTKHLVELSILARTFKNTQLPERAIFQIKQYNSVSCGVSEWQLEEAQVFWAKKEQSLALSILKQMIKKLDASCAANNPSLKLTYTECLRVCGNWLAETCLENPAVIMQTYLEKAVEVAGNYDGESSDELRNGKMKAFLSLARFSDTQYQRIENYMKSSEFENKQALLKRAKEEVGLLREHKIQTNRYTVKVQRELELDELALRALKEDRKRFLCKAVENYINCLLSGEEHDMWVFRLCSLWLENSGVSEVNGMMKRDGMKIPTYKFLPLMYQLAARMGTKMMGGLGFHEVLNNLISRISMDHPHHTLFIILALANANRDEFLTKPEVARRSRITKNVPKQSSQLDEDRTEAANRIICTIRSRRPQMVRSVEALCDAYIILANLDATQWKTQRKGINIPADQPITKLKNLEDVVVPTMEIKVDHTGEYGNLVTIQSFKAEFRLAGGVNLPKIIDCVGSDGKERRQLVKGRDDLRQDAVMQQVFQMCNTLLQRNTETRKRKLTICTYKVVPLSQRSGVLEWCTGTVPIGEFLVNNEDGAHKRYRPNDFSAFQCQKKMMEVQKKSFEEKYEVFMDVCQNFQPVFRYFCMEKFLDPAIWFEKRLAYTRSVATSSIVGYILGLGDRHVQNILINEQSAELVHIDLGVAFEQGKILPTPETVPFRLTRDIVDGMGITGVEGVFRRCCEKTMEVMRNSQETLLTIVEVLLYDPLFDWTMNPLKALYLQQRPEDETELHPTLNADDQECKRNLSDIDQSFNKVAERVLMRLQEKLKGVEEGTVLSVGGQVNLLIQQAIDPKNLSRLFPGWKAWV

Structure (SMILES) | IC50 (SW480 [1]) [µM] | Activity (HEK293) | IC50 (MCF7 [6]) [µM] | Activity (MDCK) | other results
OCCNCc1c(OCc2ccc(Cl)cc2Cl)ccc2ccccc12 | 4.9 | Non-Toxic | 6.3 | Non-Toxic | IC50 [2]: 33.4 µM; IC50 (SW480 [3]): 5.5 µM; IC50 (MCF7 [4]): 21.3 µM; Activity [5]: Active; inhibition [7]: Active; Activity [8]: Non-Toxic; inhibition [9]: Active
C[C@@H]1CN(CC(=O)Nc2ccc3c(c2)Cc2cccc(-c4cc(=O)cc(N5CCOCC5)o4)c2S3)C[C@H](C)O1 | 13.3 | Non-Toxic | 11.9 | Non-Toxic | IC50 (SW480 [3]): 3.3 µM; IC50 (MCF7 [4]): 2.8 µM
CN(C)CCCOc1ccc(-c2ccc3ncc4c(c3c2)n(C2CCOCC2)c(=O)n4C)cn1 | 1.1 | Non-Toxic | 0.6 | Non-Toxic | –
CNC(=O)c1ccc(-c2cnc3cnc(-c4ccccc4)cn23)cc1 | – | – | – | – | IC50 [10]: 0.31 µM
COc1ccc(C(=O)NC(=S)Nc2cccc(-c3nc4ncccc4o3)c2)cc1Cl | > 100 | Non-Toxic | > 100 | Non-Toxic | Activity ([5]; filed as activator): Active; inhibition of growth at 100 µM (MCF7 [11]): < 20%; Activity [12]: Active; Activity [13]: Active; inhibition of growth at 100 µM (SW480 [14]): < 20%; Activity [15]: Active
CCN(CC)CCCC(C)Nc1ccnc2cc(Cl)ccc12 (stereo not drawn) [CHLOROQUINE] | 14.7 | – | 13.2 | – | –
O=c1cc(-c2cccc3c2Sc2ccccc2S3)oc(N2CCOCC2)c1 [KU-55933] | 26.5 | Non-Toxic | 24.8 | Non-Toxic | –
